These results are taken from patent US20250352524A1, “PREVENTION OF METASTATIC OUTGROWTH USING TEAD INHIBITORS” (Georgetown University, priority 2024, published 2025).

Entries after “also recorded” stand apart in the source; their conditions may differ.

One test relates to naïve C57/BL6 mice. The test is described as follows: Tumor naïve C57/BL6 mice treated for two weeks, lung immune microenvironment. The format is in vivo. The method, then:
To determine iTEAD effect on lung immune microenvironment at steady state, naïve C57/BL6 mice were treated with iTEAD. […] In the absence of cancer cells in these naïve mice, no change in CD8+ T-cells was observed between treatment groups. […] On the cancer cell front, TEAD inhibition had no effect on proliferation yet reduced migration and 3D spheroid collective invasion of breast cancer cells in vitro.
To investigate how TEAD inhibition influences the immune microenvironment in the normal lung, C57BL/6 mice were treated with 30 mg/kg of VT107 or vehicle control via oral gavage for 2 weeks. Lung, spleen and blood tissues were harvested for immune cell analysis and RNA-sequencing (FIG. 9, Panel G). […] RNA-seq data was analyzed by Cibersortx (Chen et al., 2018) to deconvolute the abundance of immune cell types in the lung tissue using single-cell RNA-seq datasets.
Due to the shifts in immune signaling observed in the lung tissue upon TEAD inhibition (FIG. 9), immune cell populations were first analyzed by flow cytometry in the lungs and spleens of tumor naïve mice. Consistent with the Cibersort analysis of RNA-seq data, there was a decrease in the monocytes population and an increase in the tissue-resident alveolar macrophages (AM) (FIG. 10, Panel A). […] Next, it was sought to determine the specific effects of iTEAD treatment on lung resident versus bone-marrow derived macrophages, as the dynamics of these cell populations are crucial for the establishment of the metastatic niche (Ries et al., 2014; Qian et al., 2011). Macrophages were retrieved from the lungs by isolating F4/80+ cells, a specific marker for murine macrophages, by FACS (fluorescence-activated cell sorting) as well as bone marrow-derived macrophages from the femurs of naïve C57BL/6 mice that were then differentiated in vitro using macrophage colony stimulating factor (M-CSF). Macrophages were treated with 1 μM of VT107 for 24 hours before the conditioned media was collected and analyzed on a cytokine array. […] There was no change in the level of the other cytokines detected (FIG. 10, Panel B).
Single cell suspensions were washed 2× with PBS. Cells were then stained with Zombie NIR Fixable Viability Kit (Biolegend, 423106) or Zombie Aqua Fixable Viability Kit (Biolegend, 423102) for 20 minutes at room temperature, to identify dead cells. Next, cells were washed with FACS buffer (1×PBS+2% FBS) and incubated with conjugated antibodies binding to cell surface proteins, at 4 °C for 30 minutes. A combination of the following antibodies were used: anti-CD45-Spark Blue 550 (Biolegend, 103166), anti-CD3-PercP/Cy5.5 (Biolegend, 100217), anti-CD4-Pacific Blue (Biolegend, 116007), anti-CD8-BV785 (Biolegend, 100750), anti-CD25-BV650 (Biolegend, 102038), anti-CD45-AF700 (Biolegend, 103128), anti-CD45R (B220) (Biolegend, 563103), anti-SiglecF-APC (Miltenyi Biotec, 130-102-241), anti-CD11b-PE/Dazzle (Biolegend, 108745), anti-CD11c-FITC (Biolegend, 117306), anti-F480-PE/Cy7 (Biolegend, 123114), anti-Ly6G-BV785 (Biolegend, 127645), anti-Ly6C-BV570 (Biolegend, 128030), anti-CD206-AF700 (Biolegend, 141734), and anti-CD86-AF488 (Biolegend, 105018). Cells were fixed and permeabilized using the BD Cytofix/Cytoperm Fixation/Permeabilization Kit (BD Biosciences, #554714) prior to incubation with anti-Foxp3-AF647 (Biolegend, 126407), anti-Gata3-PE (Biolegend, 653803), anti-RORy t-BV421 (Biolegend, 562894), and anti-T-bet-BV711 (BD Biosciences, 4B10). After staining, cells were washed 2× and subjected to flow cytometry analysis using the BD FACSymphony Δ3 flow cytometer analyzer. Results were analyzed using FCS Express 7 Research (De Novo Software).
The total RNA from tissue or cell lines was extracted using RNeasy Mini Kit (Qiagen, #74104) according to the manufacturer's instructions. Total RNA integrity was assessed with the Agilent 2100 Bioanalyzer. The library preparation and next-generation sequencing (NGS) were performed at Novogene Corporation Inc. (Sacramento, CA, USA). […]

Another test relates to DCIS cells. The experiment in a line: Real Time Cell Analysis, proliferation of DCIS cells. Format: cell-based, human. The note with it: VT107 at varying concentrations, cell index. As to the method: To further examine the effect of TEAD inhibition on the myeloid compartment of the lung, a human breast cancer cell line MCFDCIS (DCIS) that metastasizes to the lungs when a small population of cells (DCISA4) expresses an isoform of the transcription coactivator amplified in breast cancer 1 (Sharif et al., 2021), was used. DCIS:DCISA4 cells were injected into the mammary fat pad of NOD/SCID mice. Mice were treated daily with VT107. Tumors were surgically removed at week 4 and lungs were monitored for metastases for another 4 weeks without receiving additional treatment (FIG. 13, Panel B). Mouse body weights were measured weekly throughout the course of treatment (FIG. 13, Panel C). […] All mice in the vehicle treated group developed lung metastases as previously reported (Sharif et al., 2021). […] RNA was extracted from lung tissues to further examine the host stroma affected by VT107. RNA sequencing reads from the lungs were aligned to the mouse transcriptome to shed light on the host tissue changes in response to treatment in the presence of seeded cancer cells. […]
Cell analysis was done using E-plates from xCELLigence, (Agilent, #5469830001) according to the manufacturer's protocol. […] Cell index was measured by changes in electric impedance at 15 min intervals. […]

Where [1] appears, read: 30 mg/kg oral gavage 2 weeks, flow cytometry.

In the case of VT107, in the test with naïve C57/BL6 mice (setting [1]), the “alveolar macrophages in the lungs” value is recorded as “increase” and the “infiltrating monocytes/macrophages in the lungs” value is listed as “decrease”. The “alveolar macrophages in the lungs” value with naïve C57/BL6 mice (30 mg/kg oral gavage 2 weeks, flow cytometry, listed as iTEAD) was “robust increase; also recorded: shift”. For the same substance, in the test with naïve C57/BL6 mice (Cibersortx of RNA-seq), the leukocytes fraction result is listed as “slight increase”, the “monocyte fraction in lung tissue” value is listed as “reduced” and the “myeloid cells' fraction including tissue resident macrophages” value was “expanded”. In the test on naïve C57/BL6 mice (Ingenuity pathway analysis), the “IL12 signaling pathway in lung” value is reported as “increase”; the “inflammation (cytokine storm, S100 family, wound healing and fibrosis signaling pathways) in lung” value is “overall reduction”. Moreover, in the test on naïve C57/BL6 mice (RNA-sequencing), the “lung gene expression, downregulated compared to upregulated genes” value was “significantly higher number of downregulated genes” and the spleen gene expression entry was “minimal changes”. Besides, in the test with naïve C57/BL6 mice (flow cytometry), the “CD3+ cells in tumor naïve lungs” value is “increase” and the “CD4+ or CD8+ T-cell populations in tumor naïve lungs” value is given as “not specifically”. For the same substance, the “total macrophages, dendritic cells, eosinophils or neutrophils” value in the test on naïve C57/BL6 mice (flow cytometry, analyzed tissues) is “No significant change”. Besides, in the test with naïve C57/BL6 mice (flow cytometry, listed as iTEAD), the “alveolar macrophages and infiltrating monocytes/macrophages in spleen or blood” value is recorded as “no change”. Moreover, in the test on naïve C57/BL6 mice (naïve mice, between treatment groups), the “CD8+ T-cells” value is given as “no change”. Moreover, in the test with DCIS cells, the “proliferation of DCIS / breast cancer cells in vitro” value was “no significant change”. For the same substance, in the test on DCIS cells (listed as iTEAD), the “proliferation of DCIS / breast cancer cells in vitro” value was “no effect”.
